# Experimental data taken from patent US20120010196A1, “METHODS OF TREATING NEURODEGENERATIVE DISORDERS AND DISEASES” (priority 2010, published 2012).
# Columns and labels:
# Format in all cases: cell-based
# [1] = system: hippocampal neurons cultured from wild-type mice; assay: Quantification of growth cone collapse in cultured neurons from wild-type mice (U18666A-induced); details: Y-27632 10 μM pre-incubation for 2 h, then 5 μM U18666A for 2 min, DIV4; n=100 growth cones
# Method: (§1) Neuronal cultures. Cortical and hippocampal neurons were prepared from npc1+/+ and npc1−/− embryos at embryonic day 18 (E18); time-pregnant wild-type BALB/c or npc1+/− mice were obtained either from Charles River Laboratories (San Diego, Calif.) or from our breeding colony respectively. Neurons were cultured in NeuroBasal (GIBCO, Carlsbad, Calif.) with 10% bovine serum albumin (BSA), 2% B27, and 1% glutamine for three to four days before being used.
# (§2) Treatment. For primary cultured neurons, chemicals (U18666A and inhibitors of various enzymes) were first dissolved in 10% DMSO before being diluted in cultured medium; final DMSO concentration was lower than 0.01%. For in vivo treatment, hydroxyfasudil monohydrochloride (Sigma) was dissolved in double-distilled H2O and injected subcutaneously at 10 mg/kg, twice a day from postnatal day 7 to day 28.
# (§3) Immunofluorescent staining. Hippocampal neurons were fixed with 4% paraformaldehyde in phosphate buffer (PB; pH 7.4) for 15 min. After washing with 1× phosphate buffer saline (PBS), cells were permeabilized with 0.05% Triton X-100 in 1×PBS for 15 min, and incubated with blocking buffer (3% BSA, 0.02% Triton X-100 in 1×PBS) for 15 min before being probed with primary antibodies. The following primary antibodies were used: anti-E6AP (1:1000), anti-phospho-p53 (1:250), anti-phospho-4EBP1 (1:1000), antiphospho-Mdm2 antibody (1:250), anti-phospho-p38 antibody (1:250), anti-RhoA antibody (1:1500). All primary antibodies were diluted in blocking buffer and incubated at 4° C. for 18 h. After six washes (6×10 min) with 1×PBS at room temperature, cells were incubated with secondary antibodies, Alexa488-anti-rabbit (1:500) or Alexa594-anti-mouse (1:500); both antibodies were diluted in blocking buffer and incubated at room temperature for one h. Cells were then washed with 1×PBS (6×10 min) and sealed with mounting medium (Vectashield; Vector Laboratories, Inc., Burlingame, Calif.) containing 49,69-diamidino-2-phenylindole (DAPI) to stain nuclei. Immunofluorescent signal was detected with a Nikon confocal microscope (Nikon TE 2000U with DEclipse C1 system; Melville, N.Y.).
# (§4) Quantification of growth cone morphology and immunoreactivity. Confocal images were taken using the 60× oil-immersion objective. About 20-30 images were randomly selected from each culture dish (20 mm in diameter); at least four to six dishes from three to six independent culture preparations/experiments were used for each experimental group. Within an experiment, cultures used for different experimental groups and designed for comparison were stained simultaneously and imaged with the same acquisition parameters. Quantification was done blindly by multiple researchers. Growth cones with less than 1 filopodium were considered collapsed; 100 growth cones were-quantified for each experimental group. Image J software was used to quantify immunoreactivity intensity of p-p53 and RhoA in axons and growth cones; the “total integrated density” was used instead of “average intensity”. Briefly, individual growth cones were outlined manually and the total integrated density was measured using Image J software. For quantification of immunoreactivity in axons, a 50 μm fragment of axons from the neck of growth cones towards the cell body was selected and integrated density measured.
# [2] = system: axons and growth cones of hippocampal neurons from wild-type mice; assay: Immunofluorescence quantification of protein levels in axons and growth cones of wild-type hippocampal neurons
# Method: as §1, §2, §3, §4
# [3] = system: hippocampal neurons cultured from npc1−/− mice; assay: Growth cone collapse in hippocampal neurons cultured from npc1−/− mice; details: 10 μM Y-27632 for 18 h at DIV3; vehicle 80±2%; n=100 growth cones
# Method: as §1
# (§5) Treatment. For primary cultured neurons, chemicals (U18666A and inhibitors of various enzymes) were first dissolved in 10% DMSO before being diluted in cultured medium; final DMSO concentration was lower than 0.01%. […]
# (§6) Immunofluorescent staining. […] Immunofluorescent signal was detected with a Nikon confocal microscope (Nikon TE 2000U with DEclipse C1 system; Melville, N.Y.).
# (§7) Quantification of growth cone morphology and immunoreactivity. […] Quantification was done blindly by multiple researchers. Growth cones with less than 1 filopodium were considered collapsed; 100 growth cones were-quantified for each experimental group. Image J software was used to quantify immunoreactivity intensity of p-p53 and RhoA in axons and growth cones; the “total integrated density” was used instead of “average intensity”. Briefly, individual growth cones were outlined manually and the total integrated density was measured using Image J software. […]
# [4] = system: cortical neurons cultured from wild-type mice; assay: Immunoblotting analysis of various proteins in cultured cortical neurons (U18666A-induced changes); details: pre-treatment with Y-27632
# Method: as §1, §2
# Immunoprecipitation and immunoblotting procedures. For immunoprecipitation, cultured cortical neurons were lysed in lysis buffer [0.05 M Tris base, 0.9% NaCl, pH 7.6, and 0.5% Triton X-100 plus Protease Inhibitors Cocktail (1:100; EMD Biosciences) and phosphatase inhibitor cocktails (1:500; Sigma)]. Lysates were centrifuged at 16,000×g for 30 min at 4° C. Supernatant were then cleared with a mixture of protein A/Gagarose beads (each 50%) for 1 h at 4 uC, and after a brief spin, pellets were discarded. A small portion of the supernatants was used as input. The reminder of the supernatant was immunoprecipitated overnight with control IgG or Tau1 antibodies. Immunoprecipitates were captured by incubation with protein A/G-agarose beads for 3 h at 4° C. After several washes, the beads were resuspended in 2×SDS sample buffer [4% sodium dodecyl sulfate (SDS), 100 mM Tris-HCl (pH 6.8), 10% b-mercaptoethanol, 20% glycerol and 0.2% bromophenol blue] and boiled for 10 min. The resulting proteins were separated by SDS-PAGE, and transferred to polyvinylidene difluoride membranes for immunoblotting using previously described protocols.
# Because the p-p53Δ and p-p53 bands were very close in immunoblots and the former was the predominant band, p-p53Δ levels were used as an index of p-p53 degradation. Immunoprecipitation was used to determine whether p-p53 truncation affected its association with the microtubule-associated protein tau, a protein that is abundantly and exclusively expressed in axons. p53 labeled by either anti-p-p53 or anti-p53 antibodies was immunoprecipitated by Tau1 antibodies (FIG. 5B).
# Increased levels of p-p53Δ and p-Mdm2 were quantified using the ImageJ program (National Institutes of Health, Bethesda, Md.). The quantified levels are contained in Table 1 below.
# [5] = system: hippocampal neurons cultured from npc1−/− mice; assay: p-p53 immunoreactivity in axons and growth cones of npc1−/− hippocampal neurons; details: 10 μM Y-27632 for 18 h at DIV3
# Method: as §1, §5, §6, §7
compound,measurement,setting,value
"C[C@@H](N)[C@H]1CC[C@H](C(=O)Nc2ccncc2)CC1.Cl.Cl [Y-27632, trans-4-[(1R)-1-Aminoethyl]-N-4-pyridinylcyclohexanecarboxamide dihydrochloride]",growth cone collapse,[1],41±1%
same,effect on U18666A-induced decrease in p-p53 immunoreactivity in axons and growth cones,"[2]; Y-27632 10 μM 2 h pretreatment, 5 μM U18666A 2 min",reversed
same,"effect on U18666A-induced reduction of ""mutant"" p53 in axons and growth cones",[2]; pre-incubation with 10 μM Y27632,blocked
same,growth cone collapse,[3],48±1%
same,effect on U18666A-induced increase in levels of phosphorylated LIM kinase (immunoblot),[4],significantly reduced
same,"effect on U18666A-induced increase in p38 and Mdm2 phosphorylation, protein ubiquitination and RhoA levels (immunoblot)",[4],did not block
same,effect on U18666A-induced p-p53 truncation (immunoblot),[4],significantly reduced
same,p-p53 immunoreactivity in axons and growth cones,[5],increased
